Values of other authors as cited in patent US20240238194A1, “ORODISPERSIBLE EFFERVESCENT TABLET COMPRISING BUDESONIDE FOR USE IN THE TREATMENT OF EOSINOPHILIC ESOPHAGITIS” (Dr. Falk Pharma GmbH, priority 2021, published 2024).

Conditions: in vivo

## budesonide [OVB]
  mucosal medication contact time, measured by scintigraphy: higher
